From publication PMC5947742 (The Journal of Dermatology, 2018)

Experiments:
[1] = Plasma pharmacokinetics of dabrafenib, its metabolites and trametinib; assay type: in vivo, Japanese patients; settings: for plasma AUC at repeat dosing (day 21) compared with single dose (day 1): AUC0-12 h for dabrafenib, AUC0-24 h for trametinib; for time by which plasma (trough) concentrations seemed to reach steady state: repeat dosing of 150 mg dabrafenib b.i.d. and 2 mg trametinib q.d.
[2] = Safety and tolerability; assay type: in vivo, Japanese patients

**Q.** Which “plasma AUC at repeat dosing (day 21) compared with single dose (day 1)” value [1] does the source give for `CC(C)(C)c1nc(-c2cccc(NS(=O)(=O)c3c(F)cccc3F)c2F)c(-c2ccnc(N)n2)s1` [Dabrafenib, dabrafenib] here?
**A.** lower

**Q.** And the “time by which plasma (trough) concentrations seemed to reach steady state” value (“time by which plasma” below) [1]?
**A.** ≤ 3 week

**Q.** What about the “adverse event leading to discontinuation” value ([2]; patient 1, phase 1) of the same compound?
**A.** grade 3 increased blood alkaline phosphatase

**Q.** And the “adverse event leading to discontinuation” value ([2]; patient 11, phase 2)?
**A.** grade 3 uveitis

**Q.** For `CC(C)c1nc(-c2cccc(NS(=O)(=O)c3c(F)cccc3F)c2F)c(-c2ccnc(N)n2)s1` [GSK2167542], which “time by which plasma” value [1] is on record?
**A.** ≤ 3 week

**Q.** Which “time by which plasma” value [1] does the source give for `CC(C)(CO)c1nc(-c2cccc(NS(=O)(=O)c3c(F)cccc3F)c2F)c(-c2ccnc(N)n2)s1` [GSK2285403] here?
**A.** ≤ 3 week

**Q.** Which “time by which plasma” value [1] does the source give for `CC(C)(C(=O)O)c1nc(-c2cccc(NS(=O)(=O)c3c(F)cccc3F)c2F)c(-c2ccnc(N)n2)s1` [GSK2298683] here?
**A.** ≤ 3 week

**Q.** For `CC(=O)Nc1cccc(-n2c(=O)n(C3CC3)c(=O)c3c(Nc4ccc(I)cc4F)n(C)c(=O)c(C)c32)c1` [Trametinib, trametinib], which “plasma AUC at repeat dosing (day 21) compared with single dose (day 1)” value [1] is on record?
**A.** higher

**Q.** What about the “time by which plasma” value [1] of the same compound?
**A.** ≤ 3 week

**Q.** And the “half-life relative to the dose interval (24 h)” value ([1]; trametinib 2 mg q.d.)?
**A.** approximately 3.5 times the dose interval

**Q.** What about the “adverse event leading to discontinuation” value ([2]; patient 11, phase 2) of the same compound?
**A.** grade 3 uveitis
